Test results from publication PMC6440464 (PeerJ, 2019).
Where “and” joins values, the source holds several entries; their conditions need not be identical. Equal values may be shown once.

Tests used:
[1] = Stability of the analytes in rat plasma QC samples at different storage conditions; type: in vitro ADME; conditions: for Post-preparation stability (4℃ for 24 h) Measured Conc.: extracted plasma samples in auto sampler rack; for Post-preparation stability (4℃ for 24 h) Measured Conc. / Free-thaw stability (3 free-thaw cycles) Measured Conc. / Long-term stability (-80℃ for 15 d) Measured Conc. / Short-term stability (25℃ for 12 h) Measured Conc.: n=5; for Free-thaw stability, Test Conc., AV / Free-thaw stability, Test Conc. / Post-preparation stability, Test Conc., AV / Post-preparation stability, Test Conc. / Short-term stability, Test Conc., AV / Short-term stability, Test Conc. / Long-term stability, Test Conc., AV / Long-term stability, Test Conc.: plasma; for Free-thaw stability, Test Conc., AV / Free-thaw stability, Test Conc.: 3 free-thaw cycles; for Free-thaw stability, Test Conc., AV / Post-preparation stability, Test Conc., AV / Short-term stability, Test Conc., AV / Long-term stability, Test Conc., AV: AV of 5 replicates; for Free-thaw stability, Test Conc. / Post-preparation stability, Test Conc. / Short-term stability, Test Conc. / Long-term stability, Test Conc.: single replicates NO.1-NO.5, listed as Quercetin-3-O-β-D-glucuronide (QG); for Post-preparation stability, Test Conc., AV / Post-preparation stability, Test Conc.: 4℃ for 24 h; for Short-term stability, Test Conc., AV / Short-term stability, Test Conc.: 25℃ for 12 h; for Long-term stability, Test Conc., AV / Long-term stability, Test Conc.: -80℃ for 15 d; for Free-thaw stability (3 free-thaw cycles) Measured Conc. / Long-term stability (-80℃ for 15 d) Measured Conc. / Short-term stability (25℃ for 12 h) Measured Conc.: rat plasma
Description: The stabilities of Qr, IQ, and QG in plasma were assessed by analyzing QC samples at different storage conditions. The stabilities of three flavonoids in plasma were studied by analyzing three concentration levels of QC samples (n = 5) at room temperature (25 °C) for 12 h, at long-term storage (−80 °C for 15 days), after three freeze (−80 °C) and thaw (room temperature) cycles, and at auto sampler rack storage (4 °C for 24 h).

[2] = set-up: method as in Yoshino et al., 2011; conditions: ref Yoshino et al., 2011; cited from earlier work
[3] = test system: lipid peroxidation; set-up: method as in Shirai et al., 2001; conditions: 10 mM; ref Shirai et al., 2001; cited from earlier work
[4] = high QC, nominal 8400.0 (Qr), 976.0 (IQ), 10000.0 (QG) ng/mL
[5] = low QC, nominal 65.6 (Qr), 48.8 (IQ), 100.0 (QG) ng/mL
[6] = medium QC, nominal 525.0 (Qr), 244.0 (IQ), 1000.0 (QG) ng/mL

With `O=C(O)[C@H]1O[C@@H](Oc2c(-c3ccc(O)c(O)c3)oc3cc(O)cc(O)c3c2=O)[C@H](O)[C@@H](O)[C@@H]1O` [QG, Quercetin-3-O-β-D-glucuronide] the “Post-preparation stability (4℃ for 24 h) Measured Conc.” value [1, 4] was 9409.6 ± 569.5 ng/mL, the “Post-preparation stability (4℃ for 24 h) Measured Conc.” value [1, 5] was 97.2 ± 6.0 ng/mL and the “Post-preparation stability (4℃ for 24 h) Measured Conc.” value [1] was 910.7 ± 68.0 ng/mL. The “Free-thaw stability, Test Conc., AV” value ([1]; nominal Conc. 100.00 ng/mL) was 98.37 ng/mL, the “Free-thaw stability, Test Conc.” value ([1]; nominal Conc. 100.00 ng/mL) was 105.25 ng/mL and 86.98 ng/mL and 102.05 ng/mL and 100.21 ng/mL and 97.34 ng/mL and the “Free-thaw stability, Test Conc., AV” value ([1]; nominal Conc. 1000.00 ng/mL) was 954.92 ng/mL. For the same compound, the “Free-thaw stability, Test Conc.” value ([1]; nominal Conc. 1000.00 ng/mL) was 860.30 ng/mL and 851.00 ng/mL and 988.40 ng/mL and 1022.10 ng/mL and 1052.80 ng/mL, the “Free-thaw stability, Test Conc., AV” value ([1]; nominal Conc. 10000.00 ng/mL) was 9353.20 ng/mL and the “Free-thaw stability, Test Conc.” value ([1]; nominal Conc. 10000.00 ng/mL) was 8753.00 ng/mL and 9439.00 ng/mL and 10058.00 ng/mL and 9832.00 ng/mL and 8684.00 ng/mL. For the same compound, the “Post-preparation stability, Test Conc., AV” value ([1]; nominal Conc. 100.00 ng/mL) was 97.18 ng/mL, the “Post-preparation stability, Test Conc.” value ([1]; nominal Conc. 100.00 ng/mL) was 105.22 ng/mL and 101.31 ng/mL and 93.07 ng/mL and 95.83 ng/mL and 90.49 ng/mL and the “Post-preparation stability, Test Conc., AV” value ([1]; nominal Conc. 1000.00 ng/mL) was 910.72 ng/mL. The “Post-preparation stability, Test Conc.” value ([1]; nominal Conc. 1000.00 ng/mL) was 905.70 ng/mL and 890.50 ng/mL and 1027.40 ng/mL and 853.70 ng/mL and 876.30 ng/mL, the “Post-preparation stability, Test Conc., AV” value ([1]; nominal Conc. 10000.00 ng/mL) was 9409.60 ng/mL and the “Post-preparation stability, Test Conc.” value ([1]; nominal Conc. 10000.00 ng/mL) was 8728.00 ng/mL and 8919.00 ng/mL and 9825.00 ng/mL and 10046.00 ng/mL and 9530.00 ng/mL. For the same compound, the “Short-term stability, Test Conc., AV” value ([1]; nominal Conc. 100.00 ng/mL) was 89.29 ng/mL, the “Short-term stability, Test Conc.” value ([1]; nominal Conc. 100.00 ng/mL) was 86.17 ng/mL and 83.32 ng/mL and 97.85 ng/mL and 94.48 ng/mL and 84.64 ng/mL and the “Short-term stability, Test Conc., AV” value ([1]; nominal Conc. 1000.00 ng/mL) was 943.20 ng/mL. For the same compound, the “Short-term stability, Test Conc.” value ([1]; nominal Conc. 1000.00 ng/mL) was 905.00 ng/mL and 917.50 ng/mL and 1029.40 ng/mL and 991.30 ng/mL and 872.80 ng/mL, the “Short-term stability, Test Conc., AV” value ([1]; nominal Conc. 10000.00 ng/mL) was 9334.60 ng/mL and the “Short-term stability, Test Conc.” value ([1]; nominal Conc. 10000.00 ng/mL) was 9717.00 ng/mL and 8935.00 ng/mL and 9106.00 ng/mL and 9353.00 ng/mL and 9562.00 ng/mL. The “Long-term stability, Test Conc., AV” value ([1]; nominal Conc. 100.00 ng/mL) was 98.57 ng/mL, the “Long-term stability, Test Conc.” value ([1]; nominal Conc. 100.00 ng/mL) was 87.09 ng/mL and 91.05 ng/mL and 96.73 ng/mL and 107.32 ng/mL and 110.64 ng/mL and the “Long-term stability, Test Conc., AV” value ([1]; nominal Conc. 1000.00 ng/mL) was 941.48 ng/mL. The “Long-term stability, Test Conc.” value ([1]; nominal Conc. 1000.00 ng/mL) was 839.70 ng/mL and 1104.80 ng/mL and 874.40 ng/mL and 932.10 ng/mL and 956.40 ng/mL, the “Long-term stability, Test Conc., AV” value ([1]; nominal Conc. 10000.00 ng/mL) was 9985.00 ng/mL and the “Long-term stability, Test Conc.” value ([1]; nominal Conc. 10000.00 ng/mL) was 10543.00 ng/mL and 10195.00 ng/mL and 11086.00 ng/mL and 9530.00 ng/mL and 8571.00 ng/mL. The “Free-thaw stability (3 free-thaw cycles) Measured Conc.” value [1, 4] was 9353.2 ± 620.8 ng/mL, the “Long-term stability (-80℃ for 15 d) Measured Conc.” value [1, 4] was 9985.0 ± 971.4 ng/mL and the “Short-term stability (25℃ for 12 h) Measured Conc.” value [1, 4] was 9334.6 ± 320.2 ng/mL. For the same compound, the “Free-thaw stability (3 free-thaw cycles) Measured Conc.” value [1, 5] was 98.4 ± 7.0 ng/mL, the “Long-term stability (-80℃ for 15 d) Measured Conc.” value [1, 5] was 98.6 ± 10.2 ng/mL and the “Short-term stability (25℃ for 12 h) Measured Conc.” value [1, 5] was 89.3 ± 6.5 ng/mL. For the same compound, the “Free-thaw stability (3 free-thaw cycles) Measured Conc.” value [1, 6] was 954.9 ± 93.5 ng/mL, the “Long-term stability (-80℃ for 15 d) Measured Conc.” value [1, 6] was 941.5 ± 102.3 ng/mL and the “Short-term stability (25℃ for 12 h) Measured Conc.” value [1, 6] was 943.2 ± 64.9 ng/mL. For the same compound, the “Toxicity compared with its aglycone” value [2] was “much less toxic” and the “Inhibition of lipid peroxidation” value [3] was “can inhibit lipid peroxidation”.
